Reference: article PMC7988496, “Sphingomyelin synthase-related protein generates diacylglycerol via the hydrolysis of glycerophospholipids in the absence of ceramide” (The Journal of Biological Chemistry, 2021)

Key:
[1] = target: T1, SMSr-V5 (Homo sapiens, UniProt Q96LT4); test: anti-V5 immunoprecipitate, […]:1-DG quantified by LC-MS/MS; assay type: biochemical
T1 construct: gene SAMD8
T1 sequence (Q96LT4 1-415): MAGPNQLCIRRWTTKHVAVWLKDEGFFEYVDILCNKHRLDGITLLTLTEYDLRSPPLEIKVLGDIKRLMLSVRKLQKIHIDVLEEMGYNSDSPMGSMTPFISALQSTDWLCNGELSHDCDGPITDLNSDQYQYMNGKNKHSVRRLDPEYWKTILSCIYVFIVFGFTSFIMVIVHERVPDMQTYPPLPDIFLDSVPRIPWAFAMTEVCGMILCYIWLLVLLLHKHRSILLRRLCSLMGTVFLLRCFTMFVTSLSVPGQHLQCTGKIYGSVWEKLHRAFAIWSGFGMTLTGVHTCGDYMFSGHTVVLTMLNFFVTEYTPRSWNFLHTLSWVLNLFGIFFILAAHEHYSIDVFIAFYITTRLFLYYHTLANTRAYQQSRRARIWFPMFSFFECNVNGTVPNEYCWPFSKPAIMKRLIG

[2] = substrate: CCCCCCCC/C=C\CCCCCCCC(=O)O[C@H](COC(=O)CCCCCCCCCCCCCCC)COP(=O)(O)O; test: DDM/CHS mixed micellar assay, DG quantified by LC-MS/MS; assay type: biochemical, Homo sapiens; details: PAP activity, no ceramide, pH 7.4, 37 °C, 2 h, 0.1% DDM, 0.02% CHS, surface-dilution Km also printed as 3.92 ± 0.536 mol%
Text: DDM/CHS mixed micellar assay, DG quantified by LC-MS/MS on 6× His-SMSr-ΔSAMD

Molecule: CCCCCCCC/C=C\CCCCCCCC(=O)O[C@H](COC(=O)CCCCCCCCCCCCCCC)COP(=O)(O)O [16:0/18:1-PA, 1-palmitoyl-2-oleoyl (16:0/18:1)-PA]
- anti-V5 immunoprecipitate, 16:0/18:1-DG quantified by LC-MS/MS ([1]; PAP activity): The SMSr expressed in the COS-7 cells exhibited PAP and PI-PLC activities

Molecule: CCCCCCCC/C=C\CCCCCCCC(=O)O[C@H](COC(=O)CCCCCCCCCCCCCCC)COP(=O)(O)O[C@@H]1[C@H](O)[C@H](O)[C@@H](O)[C@H](O)[C@H]1O [16:0/18:1-PI, 1-palmitoyl-2-oleoyl-sn-glycero-3-phosphoinositol]
- anti-V5 immunoprecipitate, 16:0/18:1-DG quantified by LC-MS/MS ([1]; PI-PLC activity): The SMSr expressed in the COS-7 cells exhibited PAP and PI-PLC activities

B1: 6× His-SMSr-ΔSAMD (Homo sapiens) (protein)
chain: HIDVLEEMGYNSDSPMGSMTPFISALQSTDWLCNGELSHDCDGPITDLNSDQYQYMNGKNKHSVRRLDPEYWKTILSCIYVFIVFGFTSFIMVIVHERVPDMQTYPPLPDIFLDSVPRIPWAFAMTEVCGMILCYIWLLVLLLHKHRSILLRRLCSLMGTVFLLRCFTMFVTSLSVPGQHLQCTGKIYGSVWEKLHRAFAIWSGFGMTLTGVHTCGDYMFSGHTVVLTMLNFFVTEYTPRSWNFLHTLSWVLNLFGIFFILAAHEHYSIDVFIAFYITTRLFLYYHTLANTRAYQQSRRARIWFPMFSFFECNVNGTVPNEYCWPFSKPAIMKRL
- Km [2]: 97.4 ± 13.3 µM
